Results: US20260217667A1, “AMYLOID TARGETING AGENTS” (Amydis, Inc., priority 2023, published 2026)

Legend:
α-synuclein (ASYN) = α-synuclein (ASYN) (Homo sapiens, UniProt P37840); assay: Fluorescence emission spectra of compounds with and without aggregated α-synuclein; format: binding
Description: (§1) Emission spectra for compound 1 and compound 1a were collected after incubation of the compounds with and without aggregated amyloidogenic protein at specific excitation wavelengths (450 nm and 488 nm) employed in standard ocular imaging equipment. Amyloidogenic proteins (synthetic aggregated amyloid beta (Aβ), α-synuclein (ASYN), transthyretin (TTR), TAR DNA-binding protein 43 (TDP43), and phosphorylated tau (TAU)) were aggregated in vitro using the following procedure. The amyloidogenic protein was removed from the freezer and allowed to warm to room temperature, then 1 mg of amyloidogenic protein was dissolved in 215 μL of ddH2O for about 10-20 mins at room temperature. To the resulting solution, 2 mL of ddH2O was added to provide a 100 μM stock solution. A 100 μL aliquot was sampled and frozen (non-aggregated sample). The tubes were placed in a thermoshaker at 350 rpm for 3 days. Care was taken to avoid generating bubbles. Protein aggregation was confirmed by measuring binding to Thioflavin T (ThT). Aggregated protein was then portioned into 150 μL aliquots and stored at −80° C. The fluorescent emission spectra were measured as follows to determine binding of synthetic aggregated amyloid beta (Aβ), α-synuclein (ASYN), transthyretin (TTR), TAR DNA-binding protein 43 (TDP43), and phosphorylated tau (TAU) to test compounds described herein. The Shimadzu fluorimeter was turned on and allowed to warm up for ~60 minutes. The test compounds were then removed from the −20° C. freezer and were allowed to warm to room temperature. The 100 μM aggregated Aβ solution was then removed from the −80° C. freezer and also allowed to warm to room temperature. 250 μM solutions of each test compound in DMSO were then prepared. These were then used to prepare 4 μM solutions of each test compound, with and without 5 μM aggregated Aβ in 1×PBS, in triplicates. Using a cuvette, the fluorescent emission spectra were measured for each test compound+Aβ solution, employing a DMSO/PBS solution as a blank. Each sample was tested at an excitation of 450 nm and 488 nm. Fluorescent emission spectra were then collected for each 4 μM test compound solution alone. The resulting data were used to plot intensity vs. wavelength for each emission scan. The fold increase at maximum emission (compound+Aβ/compound) is calculated for each test compound.

[1] = target: TAR DNA-binding protein 43 (TDP43) (Homo sapiens, UniProt Q13148); assay: Fluorescence emission spectra of compounds with and without aggregated TDP43
Chain of TAR DNA-binding protein 43 (TDP43) (Q13148 whole entry): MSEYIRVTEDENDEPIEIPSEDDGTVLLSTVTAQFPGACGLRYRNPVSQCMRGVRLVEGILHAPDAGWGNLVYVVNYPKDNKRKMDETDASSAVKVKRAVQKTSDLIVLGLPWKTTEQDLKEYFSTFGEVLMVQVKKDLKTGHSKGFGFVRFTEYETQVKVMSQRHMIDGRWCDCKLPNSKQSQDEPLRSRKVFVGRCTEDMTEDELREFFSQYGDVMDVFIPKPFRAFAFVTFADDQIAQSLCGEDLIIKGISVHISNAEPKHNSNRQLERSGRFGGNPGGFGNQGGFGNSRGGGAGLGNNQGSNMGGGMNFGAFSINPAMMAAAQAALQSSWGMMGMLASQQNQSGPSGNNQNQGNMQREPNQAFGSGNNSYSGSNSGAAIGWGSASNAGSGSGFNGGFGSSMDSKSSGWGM
Description: as §1

3RTau = assay: Fluorescence emission spectra of compounds with and without aggregated 3RTau; format: binding
Description: as §1

[2] = target: T1, synthetic aggregated amyloid beta (Aβ) (Homo sapiens, UniProt P05067); assay: Fluorescence emission spectra of compounds with and without aggregated amyloid beta; format: binding; details: for Fold Increase at maximum emission (compound+Aβ/compound): 4 μM compound, 5 μM aggregated Aβ in 1×PBS; for Peak emission: aggregated Aβ
T1 construct: synthetic aggregated amyloid beta (Aβ)
T1 sequence (P05067 672-713 limits assumed): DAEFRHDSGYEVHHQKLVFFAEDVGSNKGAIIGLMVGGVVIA
Description: as §1

4RTau = assay: Fluorescence emission spectra of compounds with and without aggregated 4RTau; format: binding
Description: as §1

transthyretin (TTR) = transthyretin (TTR) (Homo sapiens, UniProt P02766); assay: Fluorescence emission spectra of compounds with and without aggregated transthyretin; format: binding
Description: as §1

[3] = system: amyloidogenic aggregates (Aβ, ASYN, TTR, TDP43, 3RTau, and 4RTau); assay: In vitro binding to amyloidogenic aggregates, summary statement; details: excitation 450 nm or 488 nm
Description: Amyloidogenic proteins (synthetic aggregated amyloid beta (Aβ), α-synuclein (ASYN), transthyretin (TTR), TAR DNA-binding protein 43 (TDP43), and phosphorylated tau (TAU)) were aggregated in vitro using the following procedure. The amyloidogenic protein was removed from the freezer and allowed to warm to room temperature, then 1 mg of amyloidogenic protein was dissolved in 215 μL of ddH2O for about 10-20 mins at room temperature. To the resulting solution, 2 mL of ddH2O was added to provide a 100 μM stock solution. A 100 μL aliquot was sampled and frozen (non-aggregated sample). The tubes were placed in a thermoshaker at 350 rpm for 3 days. Care was taken to avoid generating bubbles. Protein aggregation was confirmed by measuring binding to Thioflavin T (ThT). Aggregated protein was then portioned into 150 μL aliquots and stored at −80° C.
The fluorescent emission spectra were measured as follows to determine binding of synthetic aggregated amyloid beta (Aβ), α-synuclein (ASYN), transthyretin (TTR), TAR DNA-binding protein 43 (TDP43), and phosphorylated tau (TAU) to test compounds described herein. […] Using a cuvette, the fluorescent emission spectra were measured for each test compound+Aβ solution, employing a DMSO/PBS solution as a blank. […] The fold increase at maximum emission (compound+Aβ/compound) is calculated for each test compound. […]

Row | Structure (SMILES) | Fold Increase at maximum emission (α-synuclein (ASYN); excitation 450 nm) | Peak emission (α-synuclein (ASYN); excitation 450 nm) | Fold Increase at maximum emission (α-synuclein (ASYN); excitation 488 nm) | Peak emission (α-synuclein (ASYN); excitation 488 nm) | Fold Increase at maximum emission ([1]; excitation 450 nm) | Peak emission ([1]; excitation 450 nm) | Fold Increase at maximum emission ([1]; excitation 488 nm) | Peak emission ([1]; excitation 488 nm) | Fold Increase at maximum emission (3RTau; excitation 450 nm) | Fold Increase at maximum emission (3RTau; excitation 488 nm) | Fold Increase at maximum emission (compound+Aβ/compound) ([2]; excitation 450 nm) | Peak emission ([2]; excitation 450 nm) | Fold Increase at maximum emission (compound+Aβ/compound) ([2]; excitation 488 nm) | Peak emission ([2]; excitation 488 nm) | Fold Increase at maximum emission (4RTau; excitation 450 nm) | Fold Increase at maximum emission (4RTau; excitation 488 nm) | Fold Increase at maximum emission (transthyretin (TTR); excitation 450 nm) | Peak emission (transthyretin (TTR); excitation 450 nm) | Fold Increase at maximum emission (transthyretin (TTR); excitation 488 nm) | Peak emission (transthyretin (TTR); excitation 488 nm) | other results
1 | N#C/C(=C\c1ccc2cc(N3CCCCC3)ccc2c1)C(=O)CCCOCCOCCO [Compound 1, (E)-6-(2-(2-hydroxyethoxy)ethoxy)-3-oxo-2-((6-(piperidin-1-yl)naphthalen-2-yl)methylene)hexanenitrile] | 105.50 | 552 | 109.97 | 557 | 15.33 | 547 | 18.32 | 556 | 68.04 | 69.31 | 10.16 | 559 | 9.11 | 556 | 14.35 | 29.25 | 5.18 | 553 | 7.21 | 560 | Binding to all amyloidogenic aggregates tested [3]: successfully bound
2 | N#C/C(=C\c1ccc2cc(N3CCCCC3)ccc2c1)C(=O)CCC(O)CO (stereo not drawn) [Compound 1a, (E)-6,7-dihydroxy-3-oxo-2-((6-(piperidin-1-yl)naphthalen-2-yl)methylene)heptanenitrile] | 120.92 | 554 | 190.64 | 554 | 23.23 | 551 | 20.40 | 551 | 84.37 | 103.65 | 9.48 | 554 | 19.60 | 559 | 22.19 | 22.48 | 4.67 | 550 | 7.35 | 557 | Binding to all amyloidogenic aggregates tested [3]: successfully bound
